Test results reported in US10801065B2, “Methods of determining levels of exposure to radiation and uses thereof” (priority 2015, dated 2020).
Where “and” joins values, the source holds several entries; their conditions need not be identical. Equal values may be shown once.

How the values were obtained:
Format in all cases: in vivo
[1] = system: HuCD34+ humanized NSG mice, 4 Gy to 4.5 Gy total body irradiation; assay: Bone marrow cellularity, human CD45 positive cells and CFU-Cs in irradiated humanized mice given amifostine; conditions: amifostine 200 mg/kg prior to 4.0 Gy or 4.5 Gy total body irradiation vs saline
Procedure: Bone marrow was harvested as per protocols described in Parmar et al. (Stem Cells 28:1186-1195, 2010). Briefly, animals were dissected to isolate the femurs and tibia from the mouse hind limb. The extracted bones were flushed with a 23-gauge needle using Hank's Balanced Salt Solution (HBSS, Life Technologies, Grand Island, N.Y.) supplemented with 2% fetal bovine serum (FBS) and 1% 10 mM HEPES (Life Technologies) to obtain bone marrow. The cells were then passed through an 18 gauge needle to obtain a single cell suspension. The bone marrow mononuclear cell count (BM-MNC) was determined by counting cells using 3% acetic acid with methylene blue solution (Stem Cell Technologies, Vancouver, British Columbia). For LKS (lineage, cKit, Sca-1) staining to visualize hematopoietic progenitor cells (HPCs) and hematopoietic stem cells (HSCs), whole bone marrow was stained with biotinylated anti-lineage cocktail (anti-Mac1, Gr-1, CD3e, B220, and Ter119), APC-conjugated anti-cKit (clone 2B8), and PECy7-conjugated anti Sca-1 (clone D7) antibodies. Following primary antibody staining, the cells were washed and incubated in PE-conjugated streptavidin secondary antibody to visualize lineage-positive cells. All primary and secondary antibodies were obtained from BD Biosciences (San Jose, Calif.). The samples were acquired using an LSR Fortessa instrument (Becton Dickinson, Franklin Lakes, N.J.) and data was analyzed using FlowJo software (TreeStar, Ashland, Oreg.).
To assess colony-forming ability, whole bone marrow isolated after flushing mouse femurs and tibiae was plated in 12-well plates at a density of 20,000 to 100,000 cells/well in methylcellulose medium (Methocult CF M3434, Stem Cell Technologies, Vancouver, British Columbia) containing recombinant murine IL-3, recombinant murine IL-6, and recombinant human erythropoietin. Cells from all samples were plated in triplicates and incubated at 37° C. in 5% CO2 for 7 days at which time hematopoietic colonies formed (colony-forming units in culture, CFU-Cs) were scored. […]

[2] = system: serum miRNAs miR-187-3p, miR-194-5p, miR-27a-3p, miR-30a-3p, miR-30c-5p; assay: Serum miRNA levels (qPCR) in mice given amifostine before total body irradiation; conditions: amifostine 250 mg/kg 24 hours prior to 0 Gy or 8 Gy-total body irradiation; sera 24 hours post-irradiation
Procedure: Peripheral blood was collected by retro-orbital bleeding after anesthesia. Up to 200 μL of blood was collected in DNAse/RNAse-free Eppendorf tubes and incubated at room temperature for 2 hours to allow clotting. Blood samples were then centrifuged in an Eppendorf 5415C centrifuge at 14000 RPM (15996 g) for 5 minutes at room temperature.
Total RNA was isolated from serum samples by using the miRCURY™ RNA Isolation Kit—Biofluids from 50 μL mouse serum as per the manufacturer's manual. […] Total RNA was eluted in 50 μL of RNAse-free H2O and stored at −80° C. Per the manufacturer's recommendations, input volumes for serum RNA were optimized for the cDNA synthesis reaction. cDNA was synthesized in 10 μL reactions using the Universal cDNA Synthesis Kit II and was diluted 50-fold in RNAse/DNAse-free H2O for use in quantitative PCR. The reagents for RNA extraction and cDNA synthesis were obtained from Exiqon (Vedbaek, Denmark).
Diluted cDNA was subjected to quantitative PCR analysis in Pick-N-Mix plates designed in a 96-well format. […] All reagents used for quantitative PCR were obtained from Exiqon (Vedbaek, Denmark). […]

[3] = system: HuCD34+ humanized NSG mice, 4 Gy to 4.5 Gy total body irradiation; assay: Peripheral blood CBC at euthanasia in irradiated humanized mice given amifostine; conditions: TBI + Amifostine
Procedure: Blood collection for CBCs (100 μL) was performed by retro-orbital bleeding after anesthesia in EDTA-coated tubes (BD Biosciences, San Jose, Calif.). CBCs were recorded with a Hemavet 950 FS hematology analyzer (Drew Scientific, Dallas, Tex.).
HuCD34^+ “humanized” NSG mice were obtained from Jackson Labs, Bar Harbor, Me. These mice were generated by irradiating each mouse at 1.4 Gy to deplete their bone marrow and injecting each mouse with CD34^+ human HSC. Each mouse was tested for engraftment of human CD45^+ cells and murine CD45^+ cells at 12 weeks following transplantation. Prior to the experiments described herein, the presence of human CD45^+ cells was confirmed in the peripheral blood and bone marrow from untreated control mice using an anti-human CD45 FITC antibody.
The HuCD34^+ mice were treated with saline or amifostine (200 mg/kg of body weight 45 min-1 hr before radiation exposure) and were subsequently treated with 4 Gy to 4.5 Gy of total body irradiation, or were left untreated. Following these treatments, total bone cellularity and the levels of serum miRNAs were determined in the mice. Both CD45 staining of peripheral blood and engraftment analysis of bone marrow was performed when animals became moribund (between 9-14 days after total body radiation) and were sacrificed. The mice were irradiated at approximately 12 weeks after initial assessment of engraftment.

[4] = system: lethally-irradiated mice; assay: Kaplan-Meier survival of mice given amifostine before lethal total body irradiation
Procedure: C57BL/6J male mice (10 weeks old) were obtained from Jackson Labs (Bar Harbor, Me.) and the mice were used in the experiments at an age of 12-13 weeks. Animals were exposed to total body irradiation in an irradiation pie cage (Braintree Scientific, Braintree, Mass.) at various doses. Irradiation was performed using a 137Cs source (Gamma Cell® 40 Exactor, Best Theratronics, Ottawa, Ontario).
Saline or amifostine was given to mice intraperitoneally at 250 mg/kg body weight 24 hours prior to 0 Gy- or 8 Gy-total body irradiation in a first set of experiments. In a second set of experiments, mice were left untreated or mice were administered saline or 200 mg/kg amifostine 45 minutes prior to 0 Gy- or 8.5 Gy-total body irradiation. Serum was collected from all mice at 24 hours after irradiation or a time point in the non-irradiated mice that would correspond to 24 hours after irradiation in the treated mice.
Validation with real-time qPCR: One-way ANOVA was used to confirm global significance. Dunnett's post-hoc testing procedure was used to compare miRNA levels in the irradiated+saline-group against three other experimental groups. Univariate comparisons were performed using the Student's t-test or the Student's t-test for paired samples. Pearson's correlation coefficient was used for correlation testing. Survival analysis was performed using the log-rank (Mantel-Cox) test.

NCCCNCCSP(=O)(O)O [amifostine]
number of CFU-Cs [1]: increase | number of human CD45 positive cells in the bone marrow [1]: increase | total bone marrow cellularity [1]: increase | serum miRNA signature response to treatment [2]: responded to amifostine treatment only in the context of lethal radiation | HCT, CBC at euthanasia ([3]; group Avg): 10.93% | Hb, CBC at euthanasia ([3]; group Avg): 4.27 g/dL | PLT, CBC at euthanasia ([3]; group Avg): 104.33 K/uL | RBC, CBC at euthanasia ([3]; group Avg): 2.37 M/uL | WBC, CBC at euthanasia ([3]; group Avg): 1.22 K/uL | HCT, CBC at euthanasia ([3]; individual mice (# 8, 9, 13)): 17.00% and 11.00% and 4.80% | Hb, CBC at euthanasia ([3]; individual mice (# 8, 9, 13)): 4.80 g/dL (2×) and 3.20 g/dL | PLT, CBC at euthanasia ([3]; individual mice (# 8, 9, 13)): 213 K/uL and 44 K/uL and 56 K/uL | RBC, CBC at euthanasia ([3]; individual mice (# 8, 9, 13)): 2.55 M/uL and 1.65 M/uL and 2.92 M/uL | WBC, CBC at euthanasia ([3]; individual mice (# 8, 9, 13)): 1.28 K/uL and 1.19 K/uL and 1.20 K/uL | survival ([4]; amifostine 200 mg/kg 45 minutes prior to 8.5 Gy-total body irradiation vs saline): prolonged survival | improvement in survival ([4]; amifostine 250 mg/kg intraperitoneally 24 hours prior to 8 Gy-total body irradiation vs saline, n=8 per group, p=0.0452): 50%
